Values after ≈ are worked out from the molar mass of the structure shown. One block for each compound: values may come before it.
Legend:
B16 mouse melanoma cells [1] = test: Experiment 1: gross observation of cell pellets after culture with sample; assay type: cell-based; settings: 5mM sample with 50mM c-AMP, three days; compared with blank culture
Experimental: (§1) Cultured B16 mouse melanoma cells (6x10^4 cells) were inoculated to Eagle's minimum essential medium (MEM) containing 5% (v/v) of fetal bovine serum (FBS) and pre-incubated for one day under 5% CO2 at 37° C before 4 days incubation with 0.1% D-glucosamine under the same conditions. Then the culture medium was replaced with one that contained 50mM of adenosine 3',5'-cyclic phosphate (c-AMP) and 5mM of 2,5-acetoxy benzoic acid as the sample, and incubated under 5% CO2 for three days at 37° C.
(§2) For comparison, a separate series of incubation was conducted under the same conditions using the same culture medium without 2,5-diacetoxy benzoic acid, and served as a blank.
After the incubation, the cells were isolated from the medium by centrifugation and made into a pellet.

T1-tyrosinase = test: Experiment 1: SDS electrophoresis of intracellular tyrosinase isozymes (T1); assay type: cell-based, mouse; settings: 5mM sample, three days; compared with blank culture
Experimental: as §1, §2
(§3) Then the culture samples were analyzed by SDS electrophoresis for detection of B16 mouse melanoma intracellular tyrosinase isozymes. The conditions of the electrophoresis were: gel = polyacrylamide gel (T=7.5% w/v, C=3% w/v); buffer solution = 0.025 M tris- 0.192 M glycine buffer solution (pH = 8.3) containing 0.1% (v/v) sodium dodecyl sulfate (SDS); amount of application = 20uL per well [the mixing ratio of the buffer A (38ml of 0.125M tris-HCl buffer, 10ml of glycerin, 2g of SDS and 3mg of bromphenol blue)/culture sample = 1/1]. The concentration of the sample was adjusted to 1600ug/ml.

T3-tyrosinase = test: Experiment 1: SDS electrophoresis of intracellular tyrosinase isozymes (T3); assay type: cell-based, mouse; settings: 5mM sample, three days; compared with blank culture
Experimental: as §1, §2, §3

intracellular tyrosinase = molecular target: T1, intracellular tyrosinase (Mus musculus, UniProt P11344); test: Experiments 2 and 5: inhibition of intracellular tyrosinase activity (Dopa value); assay type: cell-based; settings: for Dopa value: Fig. 1, 2.5mM or 5mM DABA, 2.5mM DAPECSAM, two days, compared with blank and with DHBA at the same concentration
T1 construct: endogenous in cells; host or cells: B16 mouse melanoma cells
T1 sequence (P11344 19-533): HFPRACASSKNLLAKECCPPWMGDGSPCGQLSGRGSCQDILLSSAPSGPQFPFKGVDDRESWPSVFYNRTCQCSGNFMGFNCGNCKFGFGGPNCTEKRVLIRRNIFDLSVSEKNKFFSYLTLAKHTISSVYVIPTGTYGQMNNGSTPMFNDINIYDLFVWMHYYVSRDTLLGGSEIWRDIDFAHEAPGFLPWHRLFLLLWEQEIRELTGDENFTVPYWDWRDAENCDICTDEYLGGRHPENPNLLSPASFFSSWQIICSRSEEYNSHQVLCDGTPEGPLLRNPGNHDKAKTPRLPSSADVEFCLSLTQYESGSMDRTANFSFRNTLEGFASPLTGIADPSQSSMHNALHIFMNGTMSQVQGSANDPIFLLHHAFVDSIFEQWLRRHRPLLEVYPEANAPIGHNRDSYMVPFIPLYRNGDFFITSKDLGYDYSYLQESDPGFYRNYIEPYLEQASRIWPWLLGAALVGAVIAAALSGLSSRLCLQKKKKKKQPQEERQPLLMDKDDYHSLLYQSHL
Experimental: (§4) Cultured B16 mouse melanoma cells were inoculated to a 96-well microplate (Corning Ltd.) at the rate of 8000 cells /well and pre-incubated in the Eagle's MEM containing 5% (v/v) FBS for one day under 5% CO2 at 37° C. After the pre-incubation, the culture medium was replaced with the Eagle's MEM containing 5% FBS, also containing 2.5mM or 5mM 2,5-diacetoxy benzoic acid or 2.5mM of 2-(2',5'-diacetoxy-benzoiloxy) benzoic acid, whereupon incubation was continued for two days under 5% CO2 at 37° C.
(§5) After the incubation, the medium was removed and a surfactant (Triton X-100) was mixed with the cells. Then 5mM of L-dopa or 0.2% of 3-(4,5-dimethylthiazol-2-yl)-2,5-diphenyltetrazorium bromide (MTT) was mixed for tyrosinase reaction at 37° C. Then the Dopa value and MTT test value were measured at the wavelength of 490nm and 570-630nm respectively using a microplate reader (Model 450, Bio Rad Ltd.).
(§6) For comparison, two series of culture with 2.5mM or 5mM of 2.5-dihydroxy benzoic acid instead of the compounds used in the present invention, as well as a culture without compound were prepared to serve as the positive controls and blank respectively.
(§7) It is believed that the higher the Dopa value, the higher the intracellular tyrosinase activity, while the lower the MTT test value, the lower the cultured B16 mouse melanoma cell activity.
(§8) The compound expressed by Formula A was used as an example of the 2,5-dihydroxy benzoic acid derivatives to evaluate its inhibitory effect on intracellular tyrosinase activity in accordance with the same protocol as followed in Experiment 2. [drawing 23]
(§9) However, the concentration was set to 2.5mM and the compound was dissolved in dimethyl sulfoxide before being applied to the culture medium.
(§10) The medium containing dimethyl sulfoxide was used for the blank culture. The results are shown in the graphs in Fig. 4 (Dopa levels) and Fig. 5 (MTT levels).

B16 mouse melanoma cells [2] = test: Experiments 2 and 5: MTT test value (cell activity); assay type: cell-based; settings: for MTT value: Fig. 2, 2.5mM or 5mM DABA, 2.5mM DAPECSAM, two days, compared with DHBA cultures and blank
Experimental: as §4, §5, §6, §7, §8, §9, §10

cyclooxygenase = test: Experiment 3: inhibition of cyclooxygenase activity (oxygen consumption); assay type: biochemical; settings: Fig. 3; 1.00ml of 5mM or 10mM solution; compared with blank (purified water)
Experimental: A mixture solution was prepared using 3.57ml of 0.2M tris-HCl buffer solution containing 20mM of L-tryptophan, 0.03ml of 40mM hemoglobin solution, 0.20ml of 400unit/ml cyclooxygenase solution, and 1.00ml of 5mM or 10mM 2.5-diacetoxy benzoic acid solution.
For comparison, a mixture using 1.00ml of purified water instead of 1.00ml of 2,5-diacetoxy benzoic acid was prepared to serve as a blank.
The mixture was incubated for five minutes at 37° C, and then 0.20ml of 0.2M tris-HCl buffer solution containing 2mM of arachidonic acid was added to the mixture for cyclooxygenase reaction. Immediately after the reaction started, the amount of dissolved oxygen in the reaction solution was measured using a biological oxygen monitor (YSI Model 5300, Meridian Instruments Far East, Ltd.). On the basis of the measurement of the dissolved oxygen level, the change in oxygen consumption attendant on the progress of the reaction time was determined.
It is believed that the less the oxygen consumption, the more the cyclooxygenase was inhibited.

in vitro = assay type: cell-based; settings: rabbit, sirc-c cells
Experimental: Cultured rabbit cornea cells (SIRC-C) were inoculated to a 96-well microplate (Corning Ltd.) at the rate of 5000 cells/well, and pre-incubated with Eagle's MEM containing 5% (v/v) FBS for one day under 5% CO2 at 37° C. Then 0.2ml of Eagle's MEM containing 0.05% neutral red was added to the culture medium and incubation was continued for two days under the same conditions. Furthermore, 2,5-diacetoxy benzoic acid was added to the culture medium at the concentrations of 0.025% (w/v) (10.5mM), 0.05% (w/v) (21mM), 0.1% (w/v) (42mM) or 0.2% (w/v) (84mM) and incubated again for two days under 5% CO 2 at 37° C.
For comparison, cultures with 30ug/ml, 60ug/ml or 90ug/ml of sodium dodecyl sulfate instead of 2,5-diacetoxy benzoic acid and without any compound were prepared and served as the positive control and the blank respectively.
The cultures were tested by analyzing SIRC-C neutral red intake, which is one of the alternative methods of eye-irritation test, and the midpoint cytotoxicity (NR50) value was derived from the neutral red intake rate to evaluate the potential irritation effect.
It is believed that, since the neutral red intake decreases with the increase in the irritation of the compound to SIRC-C, the higher the NR50 concentration of the sample solution, the lower the irritation to the cells.

SMILES: CC(=O)Oc1ccc(OC(C)=O)c(C(=O)O)c1 [DABA, 2,5-diacetoxy benzoic acid]
gross observation of pellets (B16 mouse melanoma cells [1]): significantly whitened | band of T1-tyrosinase (T1-tyrosinase): significantly reduced | T3-tyrosinase band (T3-tyrosinase): disappeared | Dopa value (intracellular tyrosinase): much lower than that of the blank | inhibitory effect on intracellular tyrosinase compared with kojic acid and albutin (intracellular tyrosinase; within a concentration range that did not inhibit cell activity): the same or even higher | MTT value (B16 mouse melanoma cells [2]): not much lower | increase in oxygen consumption attendant upon progress of reaction time (cyclooxygenase): much lower | CC50 at 48 h (in vitro): 1000 to 2000 µg/mL (≈ 4.2 to 8.4 mM)

intracellular tyrosinase activity (Dopa levels) (intracellular tyrosinase; Experiment 5, Fig. 4, 2.5mM, dissolved in dimethyl sulfoxide, blank with dimethyl sulfoxide): significantly inhibited | cell activity (MTT levels) (B16 mouse melanoma cells [2]; Experiment 5, Fig. 5, 2.5mM, dissolved in dimethyl sulfoxide, blank with dimethyl sulfoxide): not the cell activity
SMILES: COC(=O)c1ccccc1OC(=O)c1cc(OC(C)=O)ccc1OC(C)=O [Formula A]

SMILES: COC(=O)c1ccccc1OC(=O)c1cc(OC(C)=O)ccc1OC(C)=O [DAPECSAM, 2-(2'5'-diacetoxy-benzoiloxy) benzoic acid methyl ester]
Dopa value (intracellular tyrosinase): much lower than that of the blank | MTT value (B16 mouse melanoma cells [2]): not much lower

SMILES: CCCCCCCCCCCCOS(=O)(=O)[O-].[Na+] [SDS, sodium dodecyl sulfate, reference compound]
CC50 at 48 h (in vitro): ~60 µg/mL

Source: patent publication EP0955032A1, “COSMETIC” (Technoble Co., Ltd., priority 1996, dated 1997)
